The values below come from US9815846B2 (Merck Sharp & Dohme Corp., priority 2014, dated 2017).

This assay has as its target human TrkA receptor (Homo sapiens (Human), UniProt P04629). Kind of assay: DiscoverX PathHunter TrkA functional assay (NGF-stimulated U2OS cells). The following applies: U2OS cells expressing human TrkA-PK, Shc1-EA and p75NTR; compound 1 h, then NGF at ~80% of maximal response for 3 h; luminescence. The class given is cell-based.

human TrkA receptor, sequence (P04629 33-796): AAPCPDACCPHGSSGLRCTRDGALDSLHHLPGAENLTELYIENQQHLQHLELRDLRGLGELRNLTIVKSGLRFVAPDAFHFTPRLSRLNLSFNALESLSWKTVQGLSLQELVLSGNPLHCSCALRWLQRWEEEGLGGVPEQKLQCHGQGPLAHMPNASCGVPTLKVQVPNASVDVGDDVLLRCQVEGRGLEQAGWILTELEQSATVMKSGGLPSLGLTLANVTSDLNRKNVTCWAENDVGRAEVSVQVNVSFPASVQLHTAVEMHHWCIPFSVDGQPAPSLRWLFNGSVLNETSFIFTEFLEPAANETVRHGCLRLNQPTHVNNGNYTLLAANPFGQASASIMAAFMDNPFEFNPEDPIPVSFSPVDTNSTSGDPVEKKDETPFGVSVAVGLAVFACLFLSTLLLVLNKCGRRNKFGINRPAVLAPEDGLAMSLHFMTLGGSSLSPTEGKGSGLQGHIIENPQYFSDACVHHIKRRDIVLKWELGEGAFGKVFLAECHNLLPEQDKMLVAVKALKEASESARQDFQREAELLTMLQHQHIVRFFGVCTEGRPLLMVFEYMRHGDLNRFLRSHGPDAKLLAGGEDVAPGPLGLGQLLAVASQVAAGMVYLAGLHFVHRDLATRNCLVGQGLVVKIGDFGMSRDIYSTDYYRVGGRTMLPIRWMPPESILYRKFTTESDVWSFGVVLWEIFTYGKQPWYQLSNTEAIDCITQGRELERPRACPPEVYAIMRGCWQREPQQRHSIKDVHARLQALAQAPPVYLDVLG

Compound `Cn1ccc(-c2cc(C(=O)Nc3cnc(CNC(=O)CO)cc3-c3ccccc3)ccc2C(F)(F)F)n1` [Example 55, N-(6-((2-hydroxyacetamido)methyl)-4-phenylpyridin-3-yl)-3-(1-methyl-1H-pyrazol-3-yl)-4-(trifluoromethyl)benzamide] displayed an IC50 of 14 nM. Turning to `C[C@H](O)C(=O)NCc1ccc(NC(=O)c2cc(-c3ccn(C)n3)c(C(F)(F)F)cc2F)c(-c2ccccc2)n1` [Example 56, (S)-2-fluoro-N-(6-((2-hydroxypropanamido)methyl)-2-phenylpyridin-3-yl)-5-(1-methyl-1H-pyrazol-3-yl)-4-(trifluoromethyl)benzamide], the IC50 amounted to 0.45 nM. As for `Cn1ccc(-c2cc(C(=O)Nc3ccc(CNC(=O)[C@@H]4CCC(=O)N4)nc3-c3ccccc3)c(F)cc2C(F)(F)F)n1` [Example 57, (S)-N-((5-(2-fluoro-5-(1-methyl-1H-pyrazol-3-yl)-4-(trifluoromethyl)benzamido)-6-phenylpyridin-2-yl)methyl)-5-oxopyrrolidine-2-carboxamide], the figure is 1.1 nM; as for `COCC(=O)NCc1ccc(NC(=O)c2cc(-c3ccn(C)n3)c(C(F)(F)F)cc2F)c(-c2ccccc2)n1` [Example 58, 2-fluoro-N-(6-((2-methoxyacetamido)methyl)-2-phenylpyridin-3-yl)-5-(1-methyl-1H-pyrazol-3-yl)-4-(trifluoromethyl)benzamide], 0.19 nM. The same measure for `Cn1ccc(-c2cc(C(=O)Nc3ccc(CNC(=O)CS(C)(=O)=O)nc3-c3ccccc3)c(F)cc2C(F)(F)F)n1` [Example 59, 2-fluoro-5-(1-methyl-1H-pyrazol-3-yl)-N-(6-((2-(methylsulfonyl)acetamido)methyl)-2-phenylpyridin-3-yl)-4-(trifluoromethyl)benzamide]: 0.23 nM.

In the case of `C[C@@H](O)C(=O)NCc1ncc(NC(=O)c2cc(-c3ccn(C)n3)c(C(F)(F)F)cc2F)c(-c2ccccc2)n1` [Example 60, (R)-2-fluoro-N-(2-((2-hydroxypropanamido)methyl)-4-phenylpyrimidin-5-yl)-5-(1-methyl-1H-pyrazol-3-yl)-4-(trifluoromethyl)benzamide], the 50% inhibitory concentration (IC50) worked out at 1.1 nM. The same measure for `COCC(=O)NCc1ncc(NC(=O)c2cc(-c3ccn(C)n3)c(C(F)(F)F)cc2F)c(-c2ccccc2)n1` [Example 64, 2-fluoro-N-(2-((2-methoxyacetamido)methyl)-4-phenylpyrimidin-5-yl)-5-(1-methyl-1H-pyrazol-3-yl)-4-(trifluoromethyl)benzamide]: 0.44 nM. The same measure for `Cn1ccc(-c2cc(C(=O)Nc3ncc(CNC(=O)CO)nc3-c3ccccc3)c(F)cc2C(F)(F)F)n1` [Example 65, 2-fluoro-N-(5-((2-hydroxyacetamido)methyl)-3-phenylpyrazin-2-yl)-5-(1-methyl-1H-pyrazol-3-yl)-4-(trifluoromethyl)benzamide]: 3.3 nM. `Cn1ccc(-c2cc(C(=O)Nc3cnc(CNC(=O)CS(C)(=O)=O)nc3-c3ccccc3)c(F)cc2C(F)(F)F)n1` [Example 67, 2-fluoro-5-(1-methyl-1H-pyrazol-3-yl)-N-(2-((2-(methylsulfonyl)acetamido)methyl)-4-phenylpyrimidin-5-yl)-4-(trifluoromethyl)benzamide] had a 50% inhibitory concentration (IC50) of 1.6 nM.

`Cn1ccc(-c2cc(C(=O)Nc3cnc(CNC(=O)Cn4cncn4)nc3-c3ccccc3)c(F)cc2C(F)(F)F)n1` [Example 68] had an IC50 of 0.4 nM. As for `Cn1ccc(-c2cc(C(=O)Nc3ncc(CNC(=O)CO)cc3-c3ccccc3)c(F)cc2C(F)(F)F)n1` [Example 69, 2-fluoro-N-(5-((2-hydroxyacetamido)methyl)-3-phenylpyridin-2-yl)-5-(1-methyl-1H-pyrazol-3-yl)-4-(trifluoromethyl)benzamide], the figure is 18 nM.

In the case of `Cn1ccc(-c2cc(C(=O)Nc3cnc(CNC(=O)CN4CCOC4=O)nc3-c3ccccc3)c(F)cc2C(F)(F)F)n1` [Example 70, 2-fluoro-5-(1-methyl-1H-pyrazol-3-yl)-N-(2-((2-(2-oxooxazolidin-3-yl)acetamido)methyl)-4-phenylpyrimidin-5-yl)-4-(trifluoromethyl)benzamide], 0.53 nM corresponded to half-maximal inhibition (IC50). In turn, `C[C@@H](O)C(=O)NCc1cnc(NC(=O)c2cc(-c3ccn(C)n3)c(C(F)(F)F)cc2F)c(-c2ccccc2)n1` [Example 71, (R)-2-fluoro-N-(5-((2-hydroxypropanamido)methyl)-3-phenylpyrazin-2-yl)-5-(1-methyl-1H-pyrazol-3-yl)-4-(trifluoromethyl)benzamide] returned a concentration for half-maximal inhibition (IC50) of 3.6 nM.

`C[C@H](O)C(=O)N(C)Cc1ccc(NC(=O)c2cc(-c3ccn(C)n3)c(C(F)(F)F)cc2F)c(-c2ccccc2)n1` [Example 72, (S)-2-fluoro-N-(6-((2-hydroxy-N-methylpropanamido)methyl)-2-phenylpyridin-3-yl)-5-(1-methyl-1H-pyrazol-3-yl)-4-(trifluoromethyl)benzamide]: the half-inhibitory concentration (IC50) worked out at 0.57 nM. For `C[C@@H](N)C(=O)NCc1ncc(NC(=O)c2cc(-c3ccn(C)n3)c(C(F)(F)F)cc2F)c(-c2ccccc2)n1` [Example 73, (R)-N-(2-((2-aminopropanamido)methyl)-4-phenylpyrimidin-5-yl)-2-fluoro-5-(1-methyl-1H-pyrazol-3-yl)-4-(trifluoromethyl)benzamide], the IC50 turned out to be 1 nM.

`Cn1ccc(-c2cc(C(=O)Nc3cnc(CNC(=O)[C@@H]4COCCN4)nc3-c3ccccc3)c(F)cc2C(F)(F)F)n1` [Example 74, (S)-N-((5-(2-fluoro-5-(1-methyl-1H-pyrazol-3-yl)-4-(trifluoromethyl)benzamido)-4-phenylpyrimidin-2-yl)methyl)morpholine-3-carboxamide] had a half-inhibitory concentration (IC50) of 2 nM. As for `Cn1ccc(-c2cc(C(=O)Nc3cnc(CNS(C)(=O)=O)nc3-c3ccccc3)ccc2C(F)(F)F)n1` [Example 75, 3-(1-methyl-1H-pyrazol-3-yl)-N-(2-(methylsulfonamidomethyl)-4-phenylpyrimidin-5-yl)-4-(trifluoromethyl)benzamide], the figure is 12 nM.

Turning to `Cn1ccc(-c2cc(C(=O)Nc3cnc(CNC(N)=O)nc3-c3ccccc3)c(F)cc2C(F)(F)F)n1` [Example 76, 2-Fluoro-5-(1-methyl-1H-pyrazol-3-yl)-N-(4-phenyl-2-(ureidomethyl)pyrimidin-5-yl)-4-(trifluoromethyl)benzamide], half-maximal inhibition (IC50) required 0.84 nM.

Consider `Cn1ccc(-c2cc(C(=O)Nc3cnc(CN4CCNC4=O)nc3-c3ccccc3)c(F)cc2C(F)(F)F)n1` [Example 77, 2-fluoro-5-(1-methyl-1H-pyrazol-3-yl)-N-(2-((2-oxoimidazolidin-1-yl)methyl)-4-phenylpyrimidin-5-yl)-4-(trifluoromethyl)benzamide], for which inhibition was half-maximal at 1 nM (IC50).

The compound `CN(Cc1ccc(NC(=O)c2cc(-c3ccn(C)n3)c(C(F)(F)F)cc2F)c(-c2ccccc2)n1)C(N)=O` [Example 78, 2-fluoro-5-(1-methyl-1H-pyrazol-3-yl)-N-(6-((1-methylureido)methyl)-2-phenylpyridin-3-yl)-4-(trifluoromethyl)benzamide] registered an IC50 of 1.1 nM. Consider `CN(Cc1ccc(NC(=O)c2cc(-c3ccn(C)n3)c(C(F)(F)F)cc2F)c(-c2ccccc2)n1)C(=O)NCCO` [Example 79, 2-fluoro-N-(6-((3-(2-hydroxyethyl)-1-methylureido)methyl)-2-phenylpyridin-3-yl)-5-(1-methyl-1H-pyrazol-3-yl)-4-(trifluoromethyl)benzamide], for which the IC50 came to 1.1 nM.

On to `Cn1ccc(-c2cc(C(=O)Nc3cnc(COC(N)=O)nc3-c3ccccc3)c(F)cc2C(F)(F)F)n1` [Example 80, (5-(2-Fluoro-5-(1-methyl-1H-pyrazol-3-yl)-4-(trifluoromethyl)benzamido)-4-phenylpyrimidin-2-yl)methyl carbamate], for which half-maximal inhibition (IC50) required 0.49 nM.

Compound `Cn1ccc(-c2cc(C(=O)Nc3cc(C(=O)O)cnc3-c3ccccc3)c(F)cc2C(F)(F)F)n1` [Example 81, 5-(2-Fluoro-5-(1-methyl-1H-pyrazol-3-yl)-4-(trifluoromethyl)benzamido)-6-phenylnicotinic acid] yielded a 50% inhibitory concentration (IC50) of 14 nM. As for `CN(C)C(=O)c1cnc(-c2ccccc2)c(NC(=O)c2cc(-c3ccn(C)n3)c(C(F)(F)F)cc2F)c1` [Example 82, 5-(2-Fluoro-5-(1-methyl-1H-pyrazol-3-yl)-4-(trifluoromethyl)benzamido)-N,N-dimethyl-6-phenylnicotinamide], the figure is 11 nM. The same measure for `CNC(=O)c1cnc(-c2ccccc2)c(NC(=O)c2cc(-c3ccn(C)n3)c(C(F)(F)F)cc2F)c1` [Example 83, 5-(2-fluoro-5-(1-methyl-1H-pyrazol-3-yl)-4-(trifluoromethyl)benzamido)-N-methyl-6-phenylnicotinamide]: 1.1 nM; for `C[C@H](O)CNC(=O)c1cnc(-c2ccccc2)c(NC(=O)c2cc(-c3ccn(C)n3)c(C(F)(F)F)cc2F)c1` [Example 84, (S)-5-(2-fluoro-5-(1-methyl-1H-pyrazol-3-yl)-4-(trifluoromethyl)benzamido)-N-(2-hydroxypropyl)-6-phenylnicotinamide]: 1.2 nM.

The compound `C[C@@H](CO)NC(=O)c1cnc(-c2ccccc2)c(NC(=O)c2cc(-c3ccn(C)n3)c(C(F)(F)F)cc2F)c1` [Example 85, (S)-5-(2-fluoro-5-(1-methyl-1H-pyrazol-3-yl)-4-(trifluoromethyl)benzamido)-N-(1-hydroxypropan-2-yl)-6-phenylnicotinamide] showed an IC50 of 0.58 nM. Consider `Cc1cnn(-c2ccc(C(N)=O)cc2NC(=O)c2ccc(C(F)(F)F)c(-c3ccn(C)n3)c2)c1` [Example 86, N-(5-carbamoyl-2-(4-methyl-1H-pyrazol-1-yl)phenyl)-3-(1-methyl-1H-pyrazol-3-yl)-4-(trifluoromethyl)benzamide], for which the 50% inhibitory concentration (IC50) amounted to 19 nM. As for `Cn1ccc(-c2cc(C(=O)Nc3cc(C(N)=O)c(N)nc3-c3ccccc3)ccc2C(F)(F)F)n1` [Example 87, 2-amino-5-(3-(1-methyl-1H-pyrazol-3-yl)-4-(trifluoromethyl)benzamido)-6-phenylnicotinamide], the midpoint of inhibition, the IC50, lay at 8.5 nM.
